Laboratory results published in US20090068290A1, “BIFEPRUNOX DOSES FOR TREATING SCHIZOPHRENIA” (priority 2006, published 2009).
Read-outs that look alike come from different tables or passages of the source.

Assays:
[1] = system: adult subjects with schizophrenia; assay: PANSS responder rates, Clinical Study One; type: in vivo, human; details: for PANSS responder rate, 20% definition: Endpoint LOCF; for PANSS Responder at Endpoint (LOCF), 20% Definition / PANSS Responder at Endpoint (LOCF), 25% Definition / PANSS Responder at Endpoint (LOCF), 30% Definition / PANSS Responder at Endpoint (LOCF), 35% Definition: ITT
Protocol: There were five treatment groups in this study. […] Study medication was administered once daily. After Baseline measurements were performed, the titration phase was begun. Bifeprunox treated subjects were titrated up to 5 mg, 10 mg or 20 mg according to a standardized titration schedule (Day 1: 0.125 mg, Day 2: 0.25 mg, Day 3: 0.5 mg, Day 4: 1.0 mg, Day 5: 2.0 mg, Day 6: 5.0 mg, Day 7: 10.0 mg, Day 8: 20 mg). When the assigned dose was reached, subjects were maintained at that dose for the remainder of the six-week treatment period.

[2] = system: adult subjects with schizophrenia; assay: CGI Improvement score, Clinical Study Three; type: in vivo, human; design: CGI Improvement Very Much Worse, %: dose or concentration left out as unconfirmed; details: LOCF
Protocol: CLINICAL STUDY THREE: Table 29 below presents frequencies for the seven categories of CGI Improvement ratings by visit using LOCF for the ITT population. Statistical differences among treatment groups regarding the mean CGI Improvement score were evaluated using a CMH test stratified by pooled center applied to the frequencies of the seven CGI Improvement categories with modified ridit scores. […] The treatment comparison of the 30 mg bifeprunox group versus placebo group was not notable (p=0.162). No notable differences were observed between the placebo group and either of the two bifeprunox dose groups at any other time point during the study (Week 1 through Week 4).

[3] = Metabolic syndrome status, Clinical Study Four; type: in vivo, human; details: 6 months
Protocol: METHODOLOGY: This study was a multinational, multicenter, randomized, double-blind, parallel-group, placebo-controlled, fixed-dose study. The study consisted of a 3- to 6-day antipsychotic-free run-in period, after which patients were randomised to 6 months of double-blind treatment with fixed doses of bifeprunox (20 mg/day (BX20) or 30 mg/day (BX30)) or placebo (PBO). Patients allocated to the BX groups were up-titrated from 0.25 mg/day over 7 days (BX20) or 8 days (BX30), and then continued on these doses for the remainder of the study. […] At predetermined time points, blood samples were obtained for drug concentration analysis of BX and its major metabolites (3′- and 4′-sulfate conjugates of BX), and pharmaco-economic assessments were performed.

[4] = Pharmacokinetics of bifeprunox, pooled analysis and population PK; type: in vivo, human; details: for half-life: read-out: mean plasma steady-state (elimination) half-life (converted)
Source text: The objective of this study is to assess the pharmacokinetics (PK) of bifeprunox. The PK of bifeprunox in healthy subjects were investigated based on a pooled analysis of PK parameters from 21 clinical pharmacology studies. The pooled analysis included PK profiles after single and multiple doses to 132 and 399 subjects, respectively, and explored the potential effects of age, gender, body weight, and race. In addition, PK in patients with schizophrenia were investigated using a population PK approach based on samples from 376 patients in phase II studies and 434 patients in phase III studies.

[5] = Pharmacokinetic interaction of lithium and bifeprunox in healthy male subjects; type: in vivo, human; details: bifeprunox up to 40 mg per day and lithium 450 mg twice daily
Protocol: Because bifeprunox may be used in combination with the mood-stabilizing drug lithium for the treatment of patients with psychoses and mood disorders, the effect of multiple doses of bifeprunox on the pharmacokinetic (PK) profile of lithium was evaluated. Lithium has a narrow therapeutic index that can complicate therapy, and serum levels greater than 1.5 mmol/L carry a greater risk of lithium toxicity than do lower levels.
METHODS: This was a single center, double-blind, randomized, placebo-controlled, parallel-design study in 48 healthy male subjects. All subjects were to receive open-label lithium (450 mg) twice daily on days 1 through 8 and, provided serum levels were stable on days 5 through 7, again on days 9 through 20. Subjects whose serum levels were stable on days 5 through 7 were included in those randomized to receive, in addition to lithium 450 mg twice daily, either placebo or a rising dose of bifeprunox (0.025-40 mg) once daily on days 9 through 17, and placebo or bifeprunox 40 mg on days 18 through 21. Only a single morning dose of lithium 450 mg was administered on day 21. Lithium, steady-state Cmax, AUC over the dosing interval (0-t), and renal clearance (CL-R) values were compared between the bifeprunox and placebo groups using ANCOVA with baseline values of lithium measured on day 8 as covariate.

[6] = Pooled metabolic analysis, 6-week studies: lipid profile
Source text: OBJECTIVE: To examine the metabolic effects of bifeprunox in patients with acute and stable schizophrenia.
METHODS: Metabolic data was compiled from one 6-month and four 6-week studies (i.e., a treatment period) of bifeprunox in patients with stable and acute schizophrenia, respectively. In the 6-month study, patients received bifeprunox (n=331) or placebo (PBO) (n=166). […] Metabolic evaluations included body weight, body mass index (BMI), plasma glucose and lipid profiles. Fasting glucose and lipid values were assessed in one 6-week study and in the 6-month study. Triglyceride:HDL ratio (TG:HDL) was calculated as a marker of insulin resistance. No statistical analyses were performed; only descriptive statistics are presented.

[7] = fasting, endpoint, 6-week studies, BX total, OLZ 15 mg
[8] = non-fasting, endpoint, 6-week studies, BX total, RISP 6 mg, OLZ 15 mg, HAL 10 mg

O=c1[nH]c2cccc(N3CCN(Cc4cccc(-c5ccccc5)c4)CC3)c2o1 [Bifeprunox, 7-[4-([1,1′-biphenyl]-3-ylmethyl)-1-piperazinyl]-2(3H)-benzoxazolone]
PANSS responder rate, 20% definition ([1]; Bifeprunox 5 mg): 28%
PANSS Responder at Endpoint (LOCF), 20% Definition ([1]; Bifeprunox 5 mg): 31 (28) n (%)
PANSS Responder at Endpoint (LOCF), 25% Definition ([1]; Bifeprunox 5 mg): 25 (23) n (%)
PANSS Responder at Endpoint (LOCF), 30% Definition ([1]; Bifeprunox 5 mg): 16 (15) n (%)
PANSS Responder at Endpoint (LOCF), 35% Definition ([1]; Bifeprunox 5 mg): 11 (10) n (%)
PANSS responder rate, 20% definition ([1]; Bifeprunox 10 mg): 24%
PANSS Responder at Endpoint (LOCF), 20% Definition ([1]; Bifeprunox 10 mg): 28 (24) n (%)
PANSS Responder at Endpoint (LOCF), 25% Definition ([1]; Bifeprunox 10 mg): 22 (19) n (%)
PANSS Responder at Endpoint (LOCF), 30% Definition ([1]; Bifeprunox 10 mg): 12 (10) n (%)
PANSS Responder at Endpoint (LOCF), 35% Definition ([1]; Bifeprunox 10 mg): 7 (6) n (%)
PANSS Responder at Endpoint (LOCF), 20% Definition ([1]; Bifeprunox 20 mg): 38 (34) n (%)
PANSS Responder at Endpoint (LOCF), 25% Definition ([1]; Bifeprunox 20 mg): 27 (24) n (%)
PANSS Responder at Endpoint (LOCF), 30% Definition ([1]; Bifeprunox 20 mg): 18 (16) n (%)
PANSS Responder at Endpoint (LOCF), 35% Definition ([1]; Bifeprunox 20 mg): 14 (13) n (%)
PANSS responder rate, 20% definition ([1]; bifeprunox 20 mg): 34%
CGI Improvement Minimally Improved, % ([2]; 30 mg, Week 2): (45%)
CGI Improvement Minimally Worse, % ([2]; 30 mg, Week 2): (9%)
CGI Improvement Much Improved, % ([2]; 30 mg, Week 2): (21%)
CGI Improvement Much Worse, % ([2]; 30 mg, Week 2): (4%)
CGI Improvement No Change, % ([2]; 30 mg, Week 2): (19%)
CGI Improvement Very Much Improved, % ([2]; 30 mg, Week 2): (2%)
CGI Improvement Minimally Improved, % ([2]; 30 mg, Week 4): (30%)
CGI Improvement Minimally Worse, % ([2]; 30 mg, Week 4): (11%)
CGI Improvement Much Improved, % ([2]; 30 mg, Week 4): (32%)
CGI Improvement Much Worse, % ([2]; 30 mg, Week 4): (6%)
CGI Improvement No Change, % ([2]; 30 mg, Week 4): (17%)
CGI Improvement Very Much Improved, % ([2]; 30 mg, Week 4): (5%)
CGI Improvement Minimally Improved, % ([2]; 30 mg, Week 6/Endpoint): (28%)
CGI Improvement Minimally Worse, % ([2]; 30 mg, Week 6/Endpoint): (13%)
CGI Improvement Much Improved, % ([2]; 30 mg, Week 6/Endpoint): (33%)
CGI Improvement Much Worse, % ([2]; 30 mg, Week 6/Endpoint): (7%)
CGI Improvement No Change, % ([2]; 30 mg, Week 6/Endpoint): (15%)
CGI Improvement Very Much Improved, % ([2]; 30 mg, Week 6/Endpoint): (5%)
CGI Improvement Minimally Improved, % ([2]; 40 mg, Week 2): (37%)
CGI Improvement Minimally Worse, % ([2]; 40 mg, Week 2): (7%)
CGI Improvement Very Much Improved, % ([2]; 40 mg, Week 2): (<1%.)
CGI Improvement Minimally Improved, % ([2]; 40 mg, Week 4): (29%)
CGI Improvement Minimally Worse, % ([2]; 40 mg, Week 4): (8%)
CGI Improvement Very Much Improved, % ([2]; 40 mg, Week 4): (3%)
CGI Improvement Minimally Improved, % ([2]; 40 mg, Week 6/Endpoint): (30%)
CGI Improvement Minimally Worse, % ([2]; 40 mg, Week 6/Endpoint): (8%)
CGI Improvement Very Much Improved, % ([2]; 40 mg, Week 6/Endpoint): (7%)
CGI Improvement Much Improved, % ([2]; Week 2): (19%)
CGI Improvement Much Worse, % ([2]; Week 2): (10%)
CGI Improvement No Change, % ([2]; Week 2): (22%)
CGI Improvement Very Much Worse, % ([2]; Week 2): (<1%)
CGI Improvement Much Improved, % ([2]; Week 4): (30%)
CGI Improvement Much Worse, % ([2]; Week 4): (11%)
CGI Improvement No Change, % ([2]; Week 4): (17%)
CGI Improvement Very Much Worse, % ([2]; Week 4): (1%)
CGI Improvement Much Improved, % ([2]; Week 6/Endpoint): (27%)
CGI Improvement Much Worse, % ([2]; Week 6/Endpoint): (11%)
CGI Improvement No Change, % ([2]; Week 6/Endpoint): (16%)
CGI Improvement Very Much Worse, % ([2]; Week 6/Endpoint): (1%)
effect on patients' status of metabolic syndrome ([3]; BX either dose (20 or 30 mg/day)): no treatment effect
metabolic profile (weight changes, blood lipids, metabolic syndrome) ([3]; bifeprunox 20 or 30 mg/day): A favorable metabolic profile
half-life ([4]; human, in vivo, po): 14.4 h
Tmax ([4]; human, in vivo, oral administration, all dose levels): 1.5 to 2 h
half-life ([4]; human, in vivo, oral): ~14 h
dose proportionality of multiple-dose PK [4]: dose-proportional in the 20-40 mg/day range
dose proportionality of multiple-dose PK ([4]; listed as bifeprunox): dose-proportional in the 2040 mg range
age-, gender-, body weight- or race-related effects on PK ([4]; pooled analysis): No clinically significant age-, gender-, body weight- or race-related effects
mean apparent clearance ([4]; steady-state, oral): 62.2 L/h
mean apparent volume of distribution ([4]; steady-state, oral): 1300 L
tolerability of combined administration [5]: well tolerated
change in total cholesterol (TC) ([6]; 6-week studies): -0.40 mmol/L
decrease in total cholesterol (TC) ([6]; 6-week studies): 8%
non-fasting total cholesterol and triglyceride at endpoint (in words) ([6]; 6-week studies): greatest decreases
change in TG ([6]; 6 week studies): -0.44 mmol/L
decrease in TG ([6]; 6 week studies): 24%
Fasting HDL, Mean change (SD) [6, 7]: −0.5 (10.7) mg/dL
Fasting HDL, Percentage mean change [6, 7]: −1.0%
Total cholesterol, Mean change (SD) [6, 7]: −15.5 (32.9) mg/dL
Total cholesterol, Percentage mean change [6, 7]: −7.9%
Triglyceride:HDL ratio, Mean change (SD) [6, 7]: −0.4 (0.9)
Triglyceride:HDL ratio, Percentage mean change [6, 7]: −23.8%
Triglycerides, Mean change (SD) [6, 7]: −38.9 (73.5) mg/dL
Triglycerides, Percentage mean change [6, 7]: −24.2%
Total cholesterol, Mean change (SD) [6, 8]: −12.9 (0.8) mg/dL
Triglycerides, Mean change (SD) [6, 8]: −38.7 (1.3) mg/dL

Cc1cc2c(s1)Nc1ccccc1N=C2N1CCN(C)CC1 [Olanzapine, olanzapine, reference compound]
CGI Improvement Minimally Improved, % ([2]; 15 mg, Week 2): (45%)
CGI Improvement Minimally Worse, % ([2]; 15 mg, Week 2): (6%)
CGI Improvement Much Improved, % ([2]; 15 mg, Week 2): (27%)
CGI Improvement Much Worse, % ([2]; 15 mg, Week 2): (<1%)
CGI Improvement No Change, % ([2]; 15 mg, Week 2): (18%)
CGI Improvement Very Much Improved, % ([2]; 15 mg, Week 2): (4%)
CGI Improvement Minimally Improved, % ([2]; 15 mg, Week 4): (29%)
CGI Improvement Minimally Worse, % ([2]; 15 mg, Week 4): (7%)
CGI Improvement Much Improved, % ([2]; 15 mg, Week 4): (36%)
CGI Improvement Much Worse, % ([2]; 15 mg, Week 4): (3%)
CGI Improvement No Change, % ([2]; 15 mg, Week 4): (17%)
CGI Improvement Very Much Improved, % ([2]; 15 mg, Week 4): (7%)
CGI Improvement Minimally Improved, % ([2]; 15 mg, Week 6/Endpoint): (29%)
CGI Improvement Minimally Worse, % ([2]; 15 mg, Week 6/Endpoint): (7%)
CGI Improvement Much Improved, % ([2]; 15 mg, Week 6/Endpoint): (34%)
CGI Improvement Much Worse, % ([2]; 15 mg, Week 6/Endpoint): (3%)
CGI Improvement No Change, % ([2]; 15 mg, Week 6/Endpoint): (14%)
CGI Improvement Very Much Improved, % ([2]; 15 mg, Week 6/Endpoint): (12%)

Cc1nc2n(c(=O)c1CCN1CCC(c3noc4cc(F)ccc34)CC1)CCCC2 [Risperidone, risperidone, reference compound]
PANSS Responder at Endpoint (LOCF), 20% Definition ([1]; Risperidone 6 mg): 46 (40) n (%)
PANSS Responder at Endpoint (LOCF), 25% Definition ([1]; Risperidone 6 mg): 34 (29) n (%)
PANSS Responder at Endpoint (LOCF), 30% Definition ([1]; Risperidone 6 mg): 26 (22) n (%)
PANSS Responder at Endpoint (LOCF), 35% Definition ([1]; Risperidone 6 mg): 15 (13) n (%)
